Assay results as given in a melting point compilation (Tetko et al.; mined from patent text by program, amines drawn as free bases though some values may be those of a salt).

melting point | Structure (SMILES)
183 to 184 °C | CN(O)C(=O)Nc1ccc(Oc2ccc(NC(=O)N(C)O)cc2)cc1
82 to 85 °C | CCOC(=O)c1csc(C2OC(COC(=O)c3ccccc3)C(O)C2O)n1 (configuration not stated)
55 to 56.5 °C | C=CCc1cccc(CC(NC(C)=O)C(=O)OCc2ccccc2)c1 (configuration not stated)
144 to 148 °C | O=C(Oc1ccccc1N1c2ccccc2Sc2ccccc21)c1ccccc1
191 to 195 °C | C=CCOc1nc2ccccc2c2ncc(C(=O)OCC)c(=O)n12
193 to 194 °C | O=C(N[C@H](Cc1cccc(C(F)(F)F)c1)[C@@H](O)c1ccc(F)cc1)c1ccc(F)c2ccccc12 (racemic)
68 to 70 °C | Cc1cc(C)cc(C(=O)c2c(C(C)C)c(=O)[nH]c(=O)n2COCc2ccccc2)c1
214 to 215 °C | O=c1c2cc(O)cc(O)c2cc2n1CCCC2
188 °C | Cc1cc(C)nc(OC(C)C(=O)NS(=O)(=O)c2ccccc2)n1 (configuration not stated)
69 °C | CC(C)(C(=O)COc1cccc2ccccc12)C1OCCO1
68 to 70 °C | N#Cc1ccccc1OCC(O)CN1CCN(c2ncccc2F)CC1 (configuration not stated)
138 to 139 °C | COc1ccc(CCn2ccc3ccc(-c4cccc(C(=O)NCCC#N)c4)nc32)cc1OC
110 to 112 °C | CCCCC(Cc1ccc(OCCCN(C)C(=O)c2ccc(-c3ccccn3)cc2)cc1)C(=O)O (configuration not stated)
171 to 172 °C | Cn1nc2ccc(NCCCN3CCC(OC(c4ccccc4)c4ccccc4)CC3)nn2c1=O
168 to 170 °C | COc1ccc(C(=O)Nc2ccc3ccc(Oc4ccccc4OC)nc3n2)cc1
241 to 242 °C | O=C(O)c1cc(-n2c(-c3ccc([N+](=O)[O-])cc3)cc3c2CCCC3)ccc1O
198 °C | Oc1ccc(Nc2cc(-c3cn(C(c4ccccc4)(c4ccccc4)c4ccccc4)nc3-c3ccccn3)ccn2)cc1
164 °C | Cn1c(NC(=O)OCc2ccccc2)c(-c2ccccc2)c2cc(Cl)ccc21
146 to 148 °C | CS(=O)(=O)c1ccc(C2=C(c3ccccc3)C(=NO)C2)cc1
179 to 180 °C | CNC(=O)C(c1ccc(F)cc1)c1ccc(F)cc1
156 to 157 °C | O=C1C=C(O)C(Cc2ccc(Br)cc2)S1 (configuration not stated)

melting point | Structure (SMILES)
207 to 208 °C | COC(=O)C1N=c2c(ccc3c2=CC=N3)O1 (configuration not stated)
263 to 265 °C | Cc1c(C)c2c(c(C)c1NC(=O)c1ccccc1)CC(C)(C)O2
238 to 240 °C | O=c1ccc2c(-c3cccs3)nccc2[nH]1
67 to 69 °C | O=C(NC(Cc1ccccc1)c1ccc(O)cc1)C(c1ccccc1)c1ccccc1 (configuration not stated)
145 to 147 °C | COc1ccc2c(C(=O)N(CC(=O)O)C(=O)N(C)C)cccc2c1C(F)(F)F
58 to 64 °C | COc1ccc(NS(=O)(=O)c2ccc(N3CCC(NC[C@H](O)COc4cccc5[nH]c6ccccc6c45)CC3)cc2)cc1OC
270 to 273 °C | CC(C)(C)c1ccc2c(c1)-c1c(c(C(=O)C(C#N)C(=O)Nc3ccccc3)nn1-c1ccccc1)CO2 (configuration not stated)
133 to 135 °C | CCC(=C(c1ccccc1)c1ccc(C=CC(=O)OC)cc1)c1ccccc1
177 to 178 °C | O=[N+]([O-])c1cnn2cnc3ccccc3c12
207 to 209 °C | O=C1N(Cc2ccc3ncnn3c2)c2ccccc2C12COc1cc3c(cc12)OCCO3 (configuration not stated)
100 to 102 °C | COCCN(CC1=CCC(N)(Oc2ccccc2)C=C1)C(=O)C(Cl)Cl (configuration not stated)
228 to 230 °C | CC(=O)Nc1nc(CCc2ccc(NC(=N)N)cc2)c(Cc2ccc(S(C)(=O)=O)cc2)s1
118 to 122 °C | O=C(c1cc(C2=CCCCC2)ccn1)N(O)Cc1ccccc1
60 to 61.5 °C | CSc1ccc(C2=C(c3ccc(C(F)(F)F)cc3)CCC2)cc1
89 to 98 °C | N#Cc1ccc(OCc2ccsc2)cc1OC(C(=O)O)c1ccccc1Br (racemic)
216 to 218 °C | Cc1nc2c(O)c(CCC(O)c3ccccc3)c(C(=O)N(C)C)cc2n1C (configuration not stated)
180 to 182 °C | Cc1c(=O)n(Cc2ccccc2)c(=O)n2cc(C(=O)NCc3ccc(Cl)c(Cl)c3)sc12
214 to 216 °C | O=C(O)Cn1c(-c2cccc(Cl)c2)nc2cccnc21
195 to 196 °C | COc1ccc(S(=O)(=O)NCC(C(=O)NO)C2(CC(C)C)CCN(CCc3ccccc3)C2=O)cc1 (configuration not stated)
106 to 107 °C | Cc1ccnc2c1C(=O)CC(c1ccccc1Br)C2 (configuration not stated)

The remaining lines, values behind:

Structure (SMILES) | melting point
CC(C)(N)CCn1c(=O)oc2ccccc21 | 145 to 147 °C
CC(C)N1CCN(CCN2CCC(c3noc4cc(F)ccc34)CC2)C1=O | 121 to 123 °C
COc1cc(Cl)nc(NC(=O)NS(=O)(=O)c2ccccc2-c2nnnn2C)n1 | 225 to 227 °C
C=C(C)C(=O)NCC(=O)Nc1cc(Cl)c(C)c(Cl)c1O | 217 to 218 °C
C#Cc1ccc(-c2c(F)cccc2F)cc1 | 81 to 83 °C
NC(=O)C1CCN(c2c(Br)cncc2Br)CC1 | 158 to 160 °C
CCCCCCCCCCCCCCCCCCNC(=O)OCC(CN(C(C)=O)S(=O)(=O)CCCCl)NC(C)=O (configuration not stated) | 116 to 117 °C
CC(C)Oc1nc(C#N)c(C#N)nc1Cl | 48.5 to 50 °C
Cc1c(OCC2=NCCN2)ccc(Br)c1NS(C)(=O)=O | 272 °C
Cc1nc2c3c(ccn2c1C)C(=O)C(O)C(c1ccsc1)N3 (configuration not stated) | 222 to 225 °C
CC(C)(C)c1nc(C(=O)c2cccs2)nc(C(C)(C)C)c1O | 158 to 159 °C
COc1nc(Cl)cc2nc(S(=O)(=O)Nc3nn(C)cc3Br)nn12 | 230 to 232 °C
COc1ccc(Cn2c(=O)n([C@H]3CC[C@H](O)CC3)c3ncc(C(F)(F)F)cc32)cc1OC | 128 to 130 °C
CCOCc1nc2c(N)nc3c(c2n1CCCCS(C)(=O)=O)CCCC3 | 170 to 171 °C
CCCCC1=C(C)C=NC1=O | 95 to 97 °C
Cc1ccc(S(=O)(=O)OCCC2(OC3CCCCO3)CC2)cc1 (configuration not stated) | 56 to 57 °C

Structure (SMILES) | melting point
C=CN1NCC2CC3=C(C=CC(c4ccc(F)cc4)C3)CC21C (configuration not stated) | 70 to 72 °C
CCCCCCCCCCCCCCCC(=O)NC#N | 62 to 65 °C
COc1nc2sccc2c2nc(S(=O)(=O)Nc3c(Cl)cccc3Cl)nn12 | 224 to 226 °C
COc1c(N)ccc2c1C(CCNC(C)=O)CC2 (configuration not stated) | 130 to 132 °C
CCOC(=O)CC(=O)Nc1c(F)cccc1[N+](=O)[O-] | 99 to 102 °C
Nc1nc(N)c2c(I)nn(C3CC(O)C(CO)O3)c2n1 (configuration not stated) | 154 °C
CC1(CN(c2ccc(Cl)cc2)S(C)(=O)=O)OCCO1 | 84 to 85 °C
O=[N+]([O-])c1c(F)c(F)c(O)c(Cl)c1F | 107 to 109 °C
N#CC1CN1C(=O)NC(=O)COc1ccccc1 (configuration not stated) | 134 to 136 °C
CN1Cc2ccccc2N(C)S1(=O)=O | 59 to 60 °C
COc1ccc2nc3cc(OC)c(=O)c(Br)c-3sc2c1 | 260 to 261 °C
C[C@@H](NC(=O)c1c[nH]c2ncc(-c3nn(CCO)c4cc(Cl)ccc34)nc12)C(=O)N1CC(C#N)C1 | 225 to 250 °C
COc1ccc2c(c1)nnc1c(C)nc(-c3cc(Cl)ccc3Cl)n12 | 144 to 147 °C
CCc1cccc(CC)c1-n1cnc(N)nc1=O | 136 to 138 °C
O=C(c1ccc(N2CCOCC2)cc1O)C(F)(F)F | 81 to 82 °C
